Read-outs that look alike come from different tables or passages of the source.
How the values were obtained:
CB1 = CB1 (Rattus norvegicus, UniProt P20272); assay: Rat CB1 receptor binding using brain membrane, [3H]SR141716A displacement (Protocol I); set-up: CB1 receptor present in a rat brain membrane preparation; from tissue; host or cells: rat brain membrane; inhibition: dose or concentration left out as unconfirmed; conditions: for inhibition: 1 h
hCB1 = hCB1 (Homo sapiens, UniProt P21554); assay: Antagonism of CB1 receptors expressed in CHO cells, cAMP assay against CP 55,940 (Protocol IX.1); assay type: cell-based; set-up: expressed in transfected cells; host or cells: CHO (h-CB1/CHO, G418-selected); conditions: h-CB1/CHO cells, cAMP, vs 30 nM CP 55,940; for inhibition at 10 µM: read-out: hCB1 Antagonism
hCB2 [1] = biological target: T1, hCB2 (Homo sapiens, UniProt P34972); assay: In vitro binding assay using hCB2-CHO membranes, [3H]-CP-55,940 displacement (Protocol IV); set-up: expressed in transfected cells; host or cells: CHO (hCB2-CHO, generated in-house); conditions: for inhibition at 0.3 µM: 1 h, read-out: % Displacement Protocol IV
Procedure, shortened: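 Compounds were tested at a single 300 nM final concentration for displacing 0.75 nM [3H]-CP-55,940 from hCB2-CHO membranes (1 h, 30 °C, 50 mM Tris pH 7.4, 5 mM MgCl2, 1 mM EDTA, 0.1% BSA). Filter-bound radioactivity was counted, with 0.5 μM unlabelled CP-55,940 for nonspecific binding; results are % displacement.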

hCB2 [2] = biological target: T1, hCB2; assay: Antagonism of CB2 receptors expressed in CHO cells, cAMP assay against CP 55,940 (Protocol IX.1); assay type: cell-based; set-up: expressed in transfected cells; host or cells: CHO (h-CB2/CHO, G418-selected); conditions: CHO, h-CB2/CHO cells, vs 10 nM CP 55,940
Procedure, shortened: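 h-CB2/CHO cells in Krebs buffer with 0.1% FAF-BSA and 1 mM IBMX were pre-incubated 10 min with antagonist, then stimulated 30 min at room temperature with 10 nM CP 55,940 plus 10 μM forskolin. cAMP quantified by chemiluminescence; values from nonlinear regression of dose–response curves.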

[3] = rat brain membrane, [3H]SR141716A displacement, read-out: % Displacement Protocol I
[4] = hCB2-CHO membranes, [3H]-CP-55,940 displacement

Sequence of hCB1 (P21554 whole entry): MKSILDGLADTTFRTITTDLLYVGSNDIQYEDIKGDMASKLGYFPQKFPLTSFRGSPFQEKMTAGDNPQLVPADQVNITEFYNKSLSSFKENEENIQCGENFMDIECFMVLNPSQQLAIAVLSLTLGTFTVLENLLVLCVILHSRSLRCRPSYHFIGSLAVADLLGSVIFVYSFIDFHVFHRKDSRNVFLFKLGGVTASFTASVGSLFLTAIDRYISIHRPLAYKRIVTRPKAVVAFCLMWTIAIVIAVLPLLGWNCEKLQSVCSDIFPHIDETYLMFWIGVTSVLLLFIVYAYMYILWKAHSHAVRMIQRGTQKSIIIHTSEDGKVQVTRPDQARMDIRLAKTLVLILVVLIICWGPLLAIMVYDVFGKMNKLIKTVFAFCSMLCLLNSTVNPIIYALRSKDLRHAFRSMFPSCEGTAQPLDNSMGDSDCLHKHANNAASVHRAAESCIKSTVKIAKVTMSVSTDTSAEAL
Sequence of CB1 (P20272 whole entry): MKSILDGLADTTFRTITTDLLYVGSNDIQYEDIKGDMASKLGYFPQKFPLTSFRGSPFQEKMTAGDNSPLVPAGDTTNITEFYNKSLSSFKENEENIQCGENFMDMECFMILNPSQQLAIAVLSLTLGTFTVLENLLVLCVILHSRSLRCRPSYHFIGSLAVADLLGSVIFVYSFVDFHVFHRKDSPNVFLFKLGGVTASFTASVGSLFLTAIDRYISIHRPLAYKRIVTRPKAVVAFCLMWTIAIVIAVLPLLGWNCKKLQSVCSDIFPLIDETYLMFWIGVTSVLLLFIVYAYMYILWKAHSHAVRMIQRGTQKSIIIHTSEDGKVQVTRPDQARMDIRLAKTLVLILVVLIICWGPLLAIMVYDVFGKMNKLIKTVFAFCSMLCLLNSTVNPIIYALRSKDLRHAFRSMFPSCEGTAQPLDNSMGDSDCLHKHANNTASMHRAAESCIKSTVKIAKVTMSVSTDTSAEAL
T1 sequence (P34972 whole entry): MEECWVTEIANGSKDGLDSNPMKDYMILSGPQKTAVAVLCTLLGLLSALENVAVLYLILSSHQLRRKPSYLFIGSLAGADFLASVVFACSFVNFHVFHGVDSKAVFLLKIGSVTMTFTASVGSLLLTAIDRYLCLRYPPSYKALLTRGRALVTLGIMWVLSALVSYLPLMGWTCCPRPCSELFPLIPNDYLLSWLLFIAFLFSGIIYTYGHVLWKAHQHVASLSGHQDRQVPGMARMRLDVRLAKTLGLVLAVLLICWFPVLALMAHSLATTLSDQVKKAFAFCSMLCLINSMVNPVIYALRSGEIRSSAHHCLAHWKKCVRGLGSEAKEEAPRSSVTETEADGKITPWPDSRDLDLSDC

## O=C(NCc1ccc(Cl)cc1Cl)c1nn(-c2ccc(Cl)cc2Cl)c2c1C1CCC2C1 (centres unmarked) [Example 251, N(3)-(2,4-Dichlorobenzyl)-1-(2,4-dichlorophenyl)-4,5,6,7-tetrahydro-1H-4,7-methano-indazole-3-carboxamide]
CB1; [3]
  inhibition: 42.3%
hCB1; at 10 uM
  inhibition at 10 µM: 0%
hCB2 [1]; [4]
  inhibition at 0.3 µM: 60.2%
hCB2 [2]
  inhibition at 10 µM: 40.8%

## O=C(NNc1ccccc1Cl)c1nn(-c2ccc(Cl)cc2Cl)c2c1C1CCC2C1 (centres unmarked) [Example 257, N(3)-[(2-Chlorophenyl)amino]-1-(2,4-dichlorophenyl)-4,5,6,7-tetrahydro-1H-4,7-methano-indazole-3-carboxamide]
CB1; [3]
  inhibition: 73.5%
hCB2 [1]; [4]
  inhibition at 0.3 µM: 83.9%
hCB2 [2]
  inhibition at 10 µM: 37.5%

## O=C(NNc1ccccc1Br)c1nn(-c2ccc(Cl)cc2Cl)c2c1C1CCC2C1 (centres unmarked) [Example 263, N(3)-[(2-Bromophenyl)amino]-1-(2,4-dichlorophenyl)-4,5,6,7-tetrahydro-1H-4,7-methano-indazole-3-carboxamide]
CB1; [3]
  inhibition: 69.1%
hCB1; at 1 uM
  inhibition at 1 µM: 72.1%
hCB2 [1]; [4]
  inhibition at 0.3 µM: 79%
hCB2 [2]
  inhibition at 10 µM: 27.1%

## O=C(NN1CCCCC1)c1nn(-c2ccc(Cl)cc2)c2c1C1CC3CC(C1)CC2C3 [Example 140, N(7)-Piperidino-5-(4′-chlorophenyl)-5,6-diazatetracyclo[7.3.1.1^3,11.0^4,8]tetradeca-4(8)-6-diene-7-carboxamide]
CB1; rat brain membrane, [3H]SR141716A displacement
  % Displacement Protocol I: 50.4%
hCB1; at 10 uM
  hCB1 Antagonism: 19.31% at
hCB2 [1]; [4]
  % Displacement Protocol IV: 15.79%

## O=C(NC1CCCCC1)c1nn(-c2ccc(Br)cc2)c2c1C1CCC2C1 (centres unmarked) [Example 275, N(3)-Cyclohexyl-1-(4-bromophenyl)-4,5,6,7-tetrahydro-1H-4,7-methano-indazole-3-carboxamide]
CB1; [3]
  inhibition: 38.8%
hCB1; at 10 uM
  inhibition at 10 µM: 0%
hCB2 [1]; [4]
  inhibition at 0.3 µM: 72.3%
hCB2 [2]
  inhibition at 10 µM: 19.1%

## CN(NC(=O)c1nn(-c2ccc(Cl)cc2)c2c1C1CCC2C1)C1CCCCC1 (centres unmarked) [Example 213, N(3)-[(N-Cyclohexyl-N-methyl)amino]-1-(4-chlorophenyl)-4,5,6,7-tetrahydro-1H-4,7-methano-indazole-3-carboxamide]
CB1; [3]
  inhibition: 48.5%
hCB1; at 10 uM
  inhibition at 10 µM: 0%
hCB2 [1]; [4]
  inhibition at 0.3 µM: 71.8%
hCB2 [2]
  inhibition at 10 µM: 22.1%

## O=C(NCc1ccccc1Cl)c1nn(-c2ccc(Cl)cc2)c2c1C1CCC2C1 (centres unmarked) [Example 221, N(3)-(2-Chlorobenzyl)-1-(4-chlorophenyl)-4,5,6,7-tetrahydro-1H-4,7-methano-indazole-3-carboxamide]
CB1; read-out: % Displacement Protocol I, rat brain membrane, [3H]SR141716A displacement
  inhibition: 68.6%
hCB1; at 10 uM
  inhibition at 10 µM: 0%
hCB2 [1]
  inhibition at 0.3 µM: 75.7%
hCB2 [2]
  inhibition at 10 µM: 30.1%

## O=C(NNc1ccc(Cl)cc1Cl)c1nn(-c2ccc(Cl)cc2Cl)c2c1C1CCC2C1 (centres unmarked) [Example 260, N(3)-[(2,4-Dichlorophenyl)amino]-1-(2,4-dichlorophenyl)-4,5,6,7-tetrahydro-1H-4,7-methano-indazole-3-carboxamide]
CB1; [3]
  inhibition: 84.4%
hCB2 [1]; [4]
  inhibition at 0.3 µM: 80.2%
hCB2 [2]
  inhibition at 10 µM: 34.8%

Reference: patent publication US7923465B2, “Cannabinoid receptor ligands, pharmaceutical compositions containing them, and process for their preparation” (priority 2005, dated 2011)
